Patent publication US20190360054A1, “METHOD FOR DIAGNOSIS OF METASTATIC CANCER OR TAXANE-BASED DRUG-RESISTANT CANCER BY USING LMCD1 PROTEIN AND GENE CODING THEREFOR” (AICT (ADVANCED INSTITUTES OF CONVERGENCE TECHNOLOGY), priority 2016, published 2019)
pIC50: −log10 of the molar value.

Experiments:
[1] = system: MCF10CA1a.cl1 cells, MDA-MB231 cells; assay: MTT assay of paclitaxel resistance after Smad3 EPSM adenovirus infection; assay type: cell-based, human
Text: GFP, Smad3 wild-type, C-terminal phosphorylation-inhibiting mutant (3SA), Smad3 linker phosphorylation-activating mutant (STD), and a Smad3 linker phosphorylation-inhibiting mutant (EPSM) adenovirus were supplied from Dr. Sushil G. Rane (NIDDK, NIH, Bethesda, Md.). To measure transduction efficiency, GFP adenovirus was used as a control. The cells were transfected with 75 to 100 virus particles/cell in a cell solution, and each transfection procedure was repeated three times.
In particular, MCF10CA1a.cl1 cells, MDA-MB231 cells, and the cells produced according to Example 3-1 were seeded in 96-wells at a density of 3,000 cells/well and incubated for 24 hours. The culture solution was removed and a culture solution containing paclitaxel or docetaxel was added to each well to a final volume of 100 μl/well. After incubation for 72 hours, the culture solution was removed from the culture, and 0.5 mg/ml of 3-(4,5-dimethylthiazol-2-yl)-2,5-diphenyltetrazolium bromide (MTT) was added to each well, followed by incubation for 2 hours. Media containing an MTT solution was carefully removed, and 200 μl of dimethyl sulfoxide was added to each well, followed by incubation at room temperature for 5 minutes. Absorbance at 580 nm was measured using a 96-well microplate detector (Molecular Devices).

[2] = system: LMCD1-overexpressing MCF10CA1a.cl1 cells; assay: MTT assay of susceptibility to paclitaxel in LMCD1-overexpressing cells; assay type: cell-based, human; settings: MCF10CA1a.cl1 cells when LMCD1 was overexpressed, 72 hours
Protocol: To investigate whether LMCD1 protein-overexpressing breast cancer cells have resistance to a taxane-based anticancer agent, an MTT assay, which is used to evaluate cell viability, was performed on MCF-10CA1a.cl1, which are human MCF-10A-based breast cancer cell lines, and MDA-MB231. The MCF-10CA1a.cl1 and MDA-MB231 cell lines are characterized as malignant breast cancer cell lines with high metastasis.
In particular, human MCF-10A-based breast cancer cell lines, i.e., MCF-10CA1a.cl1 and MDA-MB231, were maintained in a DMEM culture solution containing 10% fetal bovine serum and 1% penicillin/streptomycin (WeIGENE) in a CO2 incubator at 37° C.
To overexpress the LMCD1 protein in cells, LMCD1 was cloned into retroviral vector pLPCX, and LMCD1 retrovirus was obtained using Plat-GP cells. The metastatic breast cancer cells were infected with the LMCD1 retrovirus, LMCD1 protein-overexpressing cells were selected using puromycin, and then the selected cells were incubated in a DMEM culture solution containing 10% fetal bovine serum and 1% penicillin/streptomycin (WeIGENE) in a CO2 incubator at 37° C.
The cells were seeded in 96 wells at a density of 3,000 cells per well and incubated for 24 hours. […] Absorbance at 580 nm was measured using a 96-well microplate detector (Molecular Devices).

[3] = Production of paclitaxel-resistant cells by repeated paclitaxel treatment; assay type: cell-based; settings: paclitaxel raised in increments of 0.5 nM over passages; read-out: IC50 value of paclitaxel at which the resistant cells did not die
Protocol: In particular, parental cells were treated with paclitaxel at a small concentration of 0.5 nM, and alive cells were repeated treated with paclitaxel three or four times while being passaged.

[4] = system: MCF10CAT1k.cl2 (M-II) and MCF10CA1a.cl1 cells; assay: MTT assay of paclitaxel resistance after treatment with LMCD1-containing conditioned media; assay type: cell-based, human; settings: cells treated with conditioned media of LMCD1-overexpressing MCF10CA1a.cl1 cells
Protocol: For MTT assay to examine resistance to paclitaxel, the cells were seeded in 96 wells at a density of 3,000 cells per well and incubated for 24 hours. The culture solution was removed, and a culture solution containing the concentrated conditioned media acquired from LPCX and LMCD1-overexpressing MCF10CA1a.cl1 cells was added to each well to a final volume of 100 μl/well. After incubation for 72 hours, the culture solution was removed from the culture, and 0.5 mg/ml of 3-(4,5-dimethylthiazol-2-yl)-2,5-diphenyltetrazolium bromide (MTT) was added to each well, followed by incubation for 2 hours. PBS containing an MTT solution was carefully removed, and 200 μl of dimethyl sulfoxide was added to each well, followed by incubation at room temperature for 5 minutes. Absorbance at 580 nm was measured using a 96-well microplate detector (Molecular Devices).

[5] = system: LMCD1 promoter in MCF10CA1a.cl1 cells; assay: LMCD1 promoter luciferase assay with TGF-β stimulation; assay type: cell-based, human; settings: 3 ng/ml TGF-β, 24 hours, Smad3 EPSM adenovirus-infected cells
Protocol: In particular, for the LMCD1 promoter analysis, MCF10CA1a.cl1 cells were infected with GFP and Smad3. EPSM adenovirus for 2 days, and then transiently transfected with an Lmcd1 promoter using FuGENE HD (Promega). 24 hours before harvesting, the cells were stimulated with 3 ng/ml of TGF-β. Luciferase activity was analyzed using a Luciferase Assay System kit (Promega) in accordance with the manufacturer's protocol. All assays were performed in triplicate, and all values were normalized to transfection efficiency as determined by β-galactosidase activity.

[6] = system: LMCD1 mRNA in MDA-MB231 cells; assay: RT-PCR of LMCD1 mRNA after TGF-β treatment; assay type: cell-based, human; settings: 5 ng/ml TGF-β, 24 hours, Smad3 EPSM adenovirus-infected cells
Protocol: For the measurement of LMCD1 mRNA, MDA-MB231 cells were infected with GFP and Smad3. EPSM adenovirus for 2 days, and then 2 hours before TGF-β treatment, the cells were pre-treated with 10 μM of SB431542 and treated with 5 ng/ml of TGF-β, followed by incubation for 24 hours. Total RNA was extracted from the cells using a TRIzol reagent (Invitrogen) in accordance with the manufacturer's protocol. The extracted RNA was converted into cDNA using M-MLV reverse transcriptase (Promega). The cDNA was synthesized and subjected to RT-PCR using a specific primer pair by using an AccuPower™ PCR PreMix kit (Bioneer Co.). Gene mRNAs were normalized to GAPDH.

Molecule | susceptibility to paclitaxel (MTT) ([1]; LMCD1 depleted in Smad3 EPSM adenovirus-infected cells (EPSM-SV-shLmcd1 #1)) | paclitaxel resistance (cell viability, MTT) ([1]; Smad3 linker phosphorylation blocked (EPSM adenovirus), compared to control) | resistance to paclitaxel (cell viability, MTT) [2] | pIC50 [3] | resistance to paclitaxel (MTT) [4] | LMCD1 transcriptional activity (luciferase) [5] | LMCD1 mRNA expression level [6]
CC(=O)O[C@H]1C(=O)[C@@]2(C)[C@H]([C@H](OC(=O)c3ccccc3)[C@]3(O)C[C@H](OC(=O)[C@H](O)[C@@H](NC(=O)c4ccccc4)c4ccccc4)C(C)=C1C3(C)C)[C@]1(OC(C)=O)CO[C@@H]1C[C@@H]2O [paclitaxel] | restored | induced | increased | 7.30 | significantly increased |  | 
TGF-β |  |  |  |  |  | increased | increased
